According to the supplement of paper PMC10307832:

How the values were obtained:
Test in all cases: relative viability (nuclei count vs DMSO), 5 days (fraction); higher = more cells survive
[1] = compound: CC1=CC=C(C=C1)C(=O)CN2C3=C(CCCC3)SC2=N [Pifithrin_alpha]
Method in brief: (§1)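 Acceptance criteria were a control CV below 25% and at least one doubling per plate. Lung cancer cell lines in 1536-well plates got five library-drug doses (not always all listed) √10 apart by pinning and were left 5 days with no medium change. Viability divides treated-well nuclei by vehicle-well nuclei and is the median across plates. Nuclei were counted by MetaXpress from 4× Hoechst images.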

[2] = compound: CNC(=O)c1ccccc1Sc1ccc2c(/C=C/c3ccccn3)n[nH]c2c1 [Axitinib]
Method in brief: as §1

[3] = compound: Nc1nc(Nc2ccc3c(c2)CC[C@@H](N2CCCC2)CC3)nn1-c1cc2c(nn1)-c1ccccc1CCC2 [Bemcentinib]
Method in brief: as §1

[4] = compound: CNC(=O)c1ccccc1Sc1ccc2c(/C=C/c3ccccn3)n[nH]c2c1 [Axitinib] + C[C@@H](Oc1cc(-c2cnn(C3CCNCC3)c2)cnc1N)c1c(Cl)ccc(F)c1Cl [Crizotinib] (partner 1 µM)
Method in brief: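 Values are medians from duplicate plates. Each reflects relative viability, defined as the nuclei count of treated wells over that of vehicle wells. Lung cancer cell lines in 1536-well plates were pin-tool dosed one day after seeding with one drug alone or with a fixed anchor-drug dose plus five library-drug doses (not always all listed) in √10 steps, then fixed, stained and imaged at 4× after 5 days.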

Cell Line	relative viability ([1]; 1 µM)	relative viability ([1]; 3.162 µM)	relative viability ([1]; 10 µM)	relative viability ([1]; 31.62 µM)	relative viability ([1]; 100 µM)	relative viability ([2]; 0.005 µM)	relative viability ([2]; 0.01581 µM)	relative viability ([2]; 0.05 µM)	relative viability ([2]; 0.1581 µM)	relative viability ([2]; 0.5 µM)	relative viability ([3]; 0.04 µM)	relative viability ([3]; 0.1265 µM)	relative viability ([3]; 0.4 µM)	relative viability ([3]; 1.265 µM)	relative viability ([3]; 4 µM)	relative viability ([4]; first compound 0.005 µM)	relative viability ([4]; first compound 0.01581 µM)	relative viability ([4]; first compound 0.05 µM)	relative viability ([4]; first compound 0.1581 µM)	relative viability ([4]; first compound 0.5 µM)
201T	0.992	0.781	0.679	0.646	0.724	0.994	0.936	0.953	0.964	0.955	0.943	0.982	1.05	0.947	1.01	1.06	1.05	1.05	1.07	1.02
A549	1.03	1.01	1	0.889	1.01	0.997	0.95	0.95	0.877	1.02	0.977	1.13	0.984	1.04	1.02	0.763	0.734	0.776	0.49	0.744
A-427	0.975	0.957	0.804	0.788	1.02	1.02	0.93	1.02	1.02	0.964	0.935	1.11	1.05	0.93	0.931	1	0.958	0.82	0.898	0.901
ABC-1	0.523	0.85	0.788	0.55	0.731	0.945	0.863	0.985	0.812	1.08	0.78	1.14	1.16	0.865	0.984	1.21	1.28	1.2	1.13	1.28
BEN	0.854	1.02	1.14	0.93	1.08	0.958	1.01	0.902	0.868	0.741	0.833	1.13	1.08	0.919	0.894	0.897	1.04	0.788	0.807	0.925
CAL-12T	0.778	1	0.937	0.711	0.765	1.03	1	0.983	0.94	0.977	0.989	1.02	1.06	1.02	1.01	0.675	0.75	0.529	0.834	0.537
COR-L23	1.07	1.09	0.977		0.94	1.05	0.93	1.06	0.923	1.05	1.03	1.17	1.14	1.18	1.12	0.696	0.564	0.596	0.623	0.778
COR-L 105	0.792	0.841	0.862	0.695	0.758	0.995	0.786	1.02	0.868	1.2	0.726	0.964	1.06	0.912	1.04	0.841	0.965	0.86	0.776	0.968
Calu-6	1.06	1.05	1	0.655	0.899	1.08	0.999	1.03	1	1.12	1.07	1.15	1.13	1.08	1.05	0.82	0.795	0.783	0.865	0.961
ChaGo-K-1	0.882	0.987	1	0.842	1.05	1.06	1.02	1.05	0.922	0.936	1.01	0.966	1.03	0.938	0.929	1.1	1.17	1.13	1.05	1.15
EBC-1	0.973	0.996	0.794	0.582	0.723	1.15	0.995	1.05	0.956	1.08	1.02	1.2	1.09	0.999	1.22	0.22	0.213	0.192	0.202	0.195
EKVX	0.984	0.861	0.858	0.738	0.695	1.01	0.963	0.917	0.88	0.99	0.793	1.09	1.02	1.03	1.03	1.03	0.896	0.785	0.904	0.958
EMC-BAC-2	0.716	1.02	0.617	0.799	0.93	1	0.925	0.977	0.957	0.771	0.956	0.939	1.07	0.955	0.978	0.819	0.859	0.766	0.754	0.719
EPLC-272H	0.622	0.892	0.859	0.755	0.802	0.943	0.832	0.938	0.896	0.83	0.749	0.991	1.01	0.906	0.841	0.893	0.989	0.76	0.986	0.937
H3255	0.856	0.93	0.945	0.71	0.795	0.985	0.851	0.912	0.894	0.896	0.804	0.994	0.993	0.951	0.964	0.975	0.79	0.764	0.77	1
HARA	0.906	0.783	0.916	0.65	0.853	1.05	0.79	0.887	0.756	1.12	0.899	1.28	0.995	0.82	0.951	1.07	1.07	1.1	0.978	1.14
